# Patent publication US20100312073A1, “METHOD OF […] […]” (priority 2008, published 2010)
# Read-outs that look alike come from different tables or passages of the source.
# System: DNIC efficiency (diffuse noxious inhibitory control)
# Conditions: 60 mg once a day for one week, healthy volunteers
# Excerpt: According to an exemplary testing procedure, the DNIC can be assessed as the difference of pain ratings to ‘test stimulus’ applied before and during the immersion of the contralateral hand into hot water bath (conditioning stimulus) as elaborated infra. Exemplary test stimulus of a 30 seconds period with contact heat, such as 30×30 mm^2 thermode TSA-2001 available from Medoc, can be delivered for instance on the non-dominant forearm at the individually-predetermined temperature that evoked pain intensity of 60 on a 0-100 NPS (more details in Granot et al., 2006). The stimulus temperature can be raised by 2° C./sec from 32° C. to the destination temperature. Fifteen minutes after the completion the first pre-immersion test, the patient is asked to immerse his/her dominant hand for 1′ into the water bath of 46.5° C. (Neto Cooling Bath CBN 8-30, Allerod, Denemark), while second application of the ‘test stimulus’ is repeated during last 30 seconds of immersion. […]
# DNIC paradigm, tested at baseline and after each of the treatments, consisted of administration of two painful stimuli, a test-pain delivered by contact heat, and a ‘conditioning’ pain induced by hot water immersion of the other hand. The DNIC efficiency was calculated as the difference between pain perceptions induced by the test-pain when given alone, and when given concomitantly with the conditioning one.
smiles,measurement,setting,value
CNCC[C@H](Oc1cccc2ccccc12)c1cccs1 [Duloxetine],Duloxetine treatment DNIC score,"high pre-treatment DNIC group (pre-treatment DNIC score 32.50), NS vs. pre-treatment",29.26
same,Duloxetine treatment DNIC score,"low pre-treatment DNIC group (pre-treatment DNIC score 0.15), P<0.05 vs. pre-treatment (Tukey)",19.35
